Test results published in the supplement of paper PMC10307832.

What was measured:
Assay in all cases: relative viability (nuclei count vs DMSO), 5 days (fraction); higher = more cells survive
Decitabine + AZD7762 = compound: Nc1ncn([C@H]2C[C@H](O)[C@@H](CO)O2)c(=O)n1 [Decitabine] + NC(=O)Nc1cc(-c2cccc(F)c2)sc1C(=O)N[C@H]1CCCNC1 [AZD7762] (partner 0.2 µM)
Summary of the method: (§1)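 Lung cancer cell lines were pin-tool dosed in 1536-well plates on the day after seeding, with either a lone drug or a fixed anchor-drug dose plus five library-drug doses (not always all listed) in √10 steps. Nuclei were counted on 4× images after 5 days. Relative viability is the ratio of treated-well to vehicle-well nuclei counts, with each value a median of duplicate plates.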

Decitabine + Linsitinib = compound: Nc1ncn([C@H]2C[C@H](O)[C@@H](CO)O2)c(=O)n1 [Decitabine] + C[C@]1(O)C[C@@H](c2nc(-c3ccc4ccc(-c5ccccc5)nc4c3)c3c(N)nccn32)C1 [Linsitinib] (partner 1 µM)
Summary of the method: as §1

Halofuginone + Dasatinib = compound: O=C(C[C@H]1NCCC[C@@H]1O)Cn1cnc2cc(Br)c(Cl)cc2c1=O (racemic) [Halofuginone] + Cc1nc(Nc2ncc(C(=O)Nc3c(C)cccc3Cl)s2)cc(N2CCN(CCO)CC2)n1 [Dasatinib] (partner 0.075 µM)
Summary of the method: as §1

Cediranib + AZD7762 = compound: COc1cc2c(Oc3ccc4[nH]c(C)cc4c3F)ncnc2cc1OCCCN1CCCC1 [Cediranib] + NC(=O)Nc1cc(-c2cccc(F)c2)sc1C(=O)N[C@H]1CCCNC1 [AZD7762] (partner 0.2 µM)
Summary of the method: as §1

Cell Line	relative viability (Decitabine + AZD7762; first compound 0.04 µM)	relative viability (Decitabine + AZD7762; first compound 0.1265 µM)	relative viability (Decitabine + AZD7762; first compound 0.4 µM)	relative viability (Decitabine + AZD7762; first compound 4 µM)	relative viability (Decitabine + Linsitinib; first compound 0.04 µM)	relative viability (Decitabine + Linsitinib; first compound 0.1265 µM)	relative viability (Decitabine + Linsitinib; first compound 0.4 µM)	relative viability (Decitabine + Linsitinib; first compound 1.265 µM)	relative viability (Decitabine + Linsitinib; first compound 4 µM)	relative viability (Halofuginone + Dasatinib; first compound 0.001 µM)	relative viability (Halofuginone + Dasatinib; first compound 0.003162 µM)	relative viability (Halofuginone + Dasatinib; first compound 0.01 µM)	relative viability (Halofuginone + Dasatinib; first compound 0.03162 µM)	relative viability (Halofuginone + Dasatinib; first compound 0.1 µM)	relative viability (Cediranib + AZD7762; first compound 0.04 µM)	relative viability (Cediranib + AZD7762; first compound 0.1265 µM)	relative viability (Cediranib + AZD7762; first compound 0.4 µM)	relative viability (Cediranib + AZD7762; first compound 1.265 µM)	relative viability (Cediranib + AZD7762; first compound 4 µM)	relative viability (Decitabine + AZD7762; first compound 1.265 µM)
201T	0.463	0.514	0.38	0.353	1.06	1.16	1.3	1.1	0.924	0.595	0.586	0.572	0.543	0.306	0.705	0.445	0.607	0.521	0.618	–
A549	–	–	–	–	0.535	0.731	0.554	0.299	0.151	–	–	–	–	–	–	–	–	–	–	–
A-427	0.464	0.512	0.425	0.285	0.807	0.674	0.446	0.368	0.275	0.744	0.773	0.678	0.723	0.643	0.816	–	0.685	0.659	0.707	0.278
ABC-1	0.668	0.814	0.712	0.84	0.705	0.677	0.639	0.611	0.523	0.586	0.626	0.453	0.476	0.487	0.635	0.729	0.813	0.905	0.723	0.701
BEN	0.691	0.791	0.55	0.664	0.994	0.809	0.671	0.46	0.43	0.345	0.318	0.331	0.36	0.229	0.772	0.587	0.649	0.517	0.696	0.586
CAL-12T	0.638	0.578	0.48	0.453	0.657	0.805	0.494	0.451	0.347	0.685	0.396	0.377	0.282	0.154	0.668	0.638	0.633	0.603	0.669	0.443
COR-L23	–	–	–	–	0.647	0.482	0.374	0.272	0.19	0.617	0.481	0.535	0.311	0.083	–	–	–	–	–	–
COR-L 105	–	–	–	–	1.02	0.768	0.738	0.506	0.486	0.387	0.353	0.316	0.257	0.234	–	–	–	–	–	–
Calu-6	–	–	–	–	0.807	0.682	0.494	0.33	0.193	–	–	–	–	–	–	–	–	–	–	–
ChaGo-K-1	0.725	0.679	0.469	0.408	–	–	–	–	–	0.502	0.602	0.607	0.622	0.6	0.843	0.684	0.886	0.9	0.948	0.442
EBC-1	–	–	–	–	0.693	0.704	0.417	0.316	0.247	–	–	–	–	–	–	–	–	–	–	–
EKVX	0.505	0.611	0.549	0.33	0.792	0.854	0.657	0.386	0.306	0.522	0.445	0.662	0.605	0.418	0.731	0.609	0.636	–	0.798	0.394
EMC-BAC-2	–	1.15	0.908	0.846	0.797	0.81	0.652	0.612	0.583	0.362	0.343	0.301	0.298	0.163	1.06	0.952	1.11	1.07	1.15	0.911
EPLC-272H	0.255	0.195	–	0.221	0.811	0.939	–	0.596	0.548	0.366	0.427	0.43	0.37	0.274	0.2	–	0.272	0.175	0.259	0.158
H3255	0.662	0.876	0.617	0.601	0.488	0.88	0.551	0.554	0.468	0.429	0.317	0.357	0.328	0.334	0.889	0.811	0.924	0.824	0.886	0.682
HARA	0.353	0.464	0.165	0.315	0.896	0.776	0.69	0.382	0.312	0.273	0.225	0.304	0.276	0.191	0.35	0.279	0.234	0.267	0.251	0.203
HCC-15	1.12	0.777	0.752	0.747	0.777	0.772	0.562	0.51	0.434	0.645	0.677	0.572	0.593	0.322	1.39	–	1.18	1.35	1.11	0.632
HCC-44	1.08	0.974	0.932	1.06	0.686	0.644	0.495	0.292	0.351	–	–	–	–	–	1.09	0.843	1	0.941	1.04	1.06
HCC-78	0.549	0.605	0.565	0.466	0.538	0.545	0.407	0.371	0.319	0.44	0.364	0.357	0.4	0.503	0.719	1.01	0.659	0.532	0.645	0.474
HCC-366	0.208	0.276	0.114	0.0424	0.535	0.743	0.339	0.14	0.111	0.709	0.804	0.684	0.66	0.414	0.41	0.314	0.181	0.376	0.266	0.0535

Cell Line	relative viability (Decitabine + AZD7762; first compound 0.04 µM)	relative viability (Decitabine + AZD7762; first compound 0.1265 µM)	relative viability (Decitabine + AZD7762; first compound 0.4 µM)	relative viability (Decitabine + AZD7762; first compound 4 µM)	relative viability (Decitabine + Linsitinib; first compound 0.04 µM)	relative viability (Decitabine + Linsitinib; first compound 0.1265 µM)	relative viability (Decitabine + Linsitinib; first compound 0.4 µM)	relative viability (Decitabine + Linsitinib; first compound 1.265 µM)	relative viability (Decitabine + Linsitinib; first compound 4 µM)	relative viability (Halofuginone + Dasatinib; first compound 0.001 µM)	relative viability (Halofuginone + Dasatinib; first compound 0.003162 µM)	relative viability (Halofuginone + Dasatinib; first compound 0.01 µM)	relative viability (Halofuginone + Dasatinib; first compound 0.03162 µM)	relative viability (Halofuginone + Dasatinib; first compound 0.1 µM)	relative viability (Cediranib + AZD7762; first compound 0.04 µM)	relative viability (Cediranib + AZD7762; first compound 0.1265 µM)	relative viability (Cediranib + AZD7762; first compound 0.4 µM)	relative viability (Cediranib + AZD7762; first compound 1.265 µM)	relative viability (Cediranib + AZD7762; first compound 4 µM)	relative viability (Decitabine + AZD7762; first compound 1.265 µM)
HCC-827	0.113	0.169	0.188	0.193	–	0.501	0.396	0.324	0.93	0.249	0.415	0.31	0.493	0.359	0.226	0.455	0.193	0.163	0.198	0.173
IA-LM	–	–	–	–	0.281	0.461	0.174	0.155	0.129	–	–	–	–	–	–	–	–	–	–	–
NCI-H520	–	–	–	–	1.13	0.916	0.633	0.333	0.324	0.215	0.173	0.175	0.16	0.17	–	–	–	–	–	–
NCI-H522	0.819	0.692	0.571	0.591	–	–	–	–	–	0.894	0.863	1.06	0.806	0.881	0.84	0.643	0.887	0.729	0.744	0.567
NCI-H661	–	–	–	–	0.566	0.502	0.406	0.248	0.267	0.954	0.884	0.856	0.79	0.378	–	–	–	–	–	–
NCI-H1299	–	–	–	–	0.976	1.06	1.03	0.918	0.802	–	–	–	–	–	–	–	–	–	–	–
NCI-H1563	–	–	–	–	1.33	1.21	1.41	1.23	1.17	0.477	0.432	0.418	0.487	0.408	–	–	–	–	–	–
NCI-H1623	–	–	–	–	–	–	–	–	–	0.588	0.43	0.523	0.468	0.394	–	–	–	–	–	–
NCI-H1648	0.692	0.672	0.469	0.428	–	–	–	–	–	–	–	–	–	–	0.586	0.533	0.636	0.514	0.72	0.448
NCI-H1650	–	–	–	–	–	–	–	–	–	0.339	0.329	0.293	0.2	0.166	–	–	–	–	–	–
NCI-H1703	0.111	0.0883	0.132	0.102	0.546	0.553	0.226	0.242	0.201	–	–	–	–	–	0.116	–	0.135	0.122	0.123	0.152
NCI-H2009	–	–	–	–	1.08	0.801	0.601	0.383	0.33	0.313	0.385	0.289	0.216	0.151	–	–	–	–	–	–
NCI-H2023	–	–	–	–	0.588	0.524	0.406	0.237	0.195	0.649	0.609	0.507	0.241	0.0614	–	–	–	–	–	–
NCI-H2170	0.412	0.52	0.554	0.245	–	–	–	–	–	0.623	0.639	0.575	0.444	0.473	0.871	–	0.743	0.611	1.1	0.268
NCI-H2228	–	–	–	–	0.377	0.589	0.613	0.356	0.291	0.622	0.488	0.48	0.236	0.0746	–	–	–	–	–	–
NCI-H2342	0.507	0.593	0.517	0.319	–	–	–	–	–	0.302	0.326	0.309	0.326	0.378	0.502	0.635	0.421	0.402	0.464	0.457
SK-LU-1	–	–	–	–	0.76	0.744	0.487	0.545	0.45	0.204	0.211	0.198	0.183	0.137	–	–	–	–	–	–
SK-MES-1	–	–	–	–	0.928	0.845	0.554	0.437	0.339	0.38	0.429	0.446	0.283	0.117	–	–	–	–	–	–
SW 900	0.502	0.646	0.39	0.298	–	–	–	–	–	1	0.677	0.555	0.616	0.163	0.839	0.536	0.594	0.621	0.835	0.237
SW 1573	–	–	–	–	0.666	0.793	0.697	0.408	0.392	0.576	0.579	0.481	0.241	0.0881	–	–	–	–	–	–
